Source: patent US9309222B2, “Phenyl linked quinolinyl modulators of RORγt” (Janssen Pharmaceutica NV, priority 2012, dated 2016)
“And” between values parts separate entries of the source, which are not always exact repeats. Identical values can stand only once. Counter-ions that a name gives are not always drawn.

Key:
[1] = target: T1, human RORγt ligand binding domain (RORγt LBD) (Homo sapiens, UniProt P51449); assay: RORγt ThermoFluor assay (thermal shift, ligand binding affinity); settings: estimated from concentration response of thermal shift
T1 construct: His-tag (N); TurboTEV protease cleavage site (ENLYFQG) (N); made in house; host or cells: E. coli (pHIS1, modified pET vector)
T1 sequence (P51449 with tags, fused parts or gaps): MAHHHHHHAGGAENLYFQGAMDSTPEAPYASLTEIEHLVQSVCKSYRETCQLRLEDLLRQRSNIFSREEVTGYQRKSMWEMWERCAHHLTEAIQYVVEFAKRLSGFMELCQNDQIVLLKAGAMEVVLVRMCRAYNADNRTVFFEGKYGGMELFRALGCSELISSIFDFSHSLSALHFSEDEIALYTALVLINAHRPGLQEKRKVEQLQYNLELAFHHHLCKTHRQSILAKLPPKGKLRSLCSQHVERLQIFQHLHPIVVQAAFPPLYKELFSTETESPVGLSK
Outline: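 Thermal shift of 0.065 mg/mL RORγt with 60 μM 1,8-ANS in 100 mM Hepes pH 7.0, 10 mM NaCl, 2.5 mM GSH, 0.002% Tween-20. Compounds in 1:2 series from 10 mM DMSO stock. Dye fluorescence (500 nm emission) tracked versus temperature; ΔTm used to derive KD.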

human RORγt LBD = target: T2, human RORγt LBD (Homo sapiens, UniProt P51449); assay: RORγt reporter assay (GAL4-RORγt LBD luciferase in HEK293T cells); type: cell-based; settings: for IC50: HEK293T cells, 24 hours compound treatment; for inhibition at 6 µM: HEK-293T, read-out: RORγt reporter Assay, % inhibition @ 6 μM, HEK293T cells, 6 μM compound
T2 construct: expressed in transfected cells
T2 sequence (P51449 258-518): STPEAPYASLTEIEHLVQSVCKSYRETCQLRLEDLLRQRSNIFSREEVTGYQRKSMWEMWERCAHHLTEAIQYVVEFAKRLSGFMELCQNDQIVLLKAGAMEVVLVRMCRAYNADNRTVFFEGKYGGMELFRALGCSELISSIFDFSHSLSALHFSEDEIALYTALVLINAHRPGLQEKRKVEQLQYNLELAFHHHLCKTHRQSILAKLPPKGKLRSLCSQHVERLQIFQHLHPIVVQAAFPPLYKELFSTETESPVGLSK
Outline: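 HEK293T cells transiently co-transfected with pBIND (GAL4 DBD fused to wild-type human RORγt LBD, plus SV40-driven renilla luciferase) and pGL4.31 GAL4-responsive firefly luciferase reporter. Plated in phenol-red-free DMEM with 5% lipid-reduced FCS and treated with compound for 24 h. Firefly/renilla luminescence ratio plotted against compound concentration.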

[2] = test system: IL-17 production by CD4 T cells; assay: Human Th17 assay (IL-17 production by CD4 T cells under Th17 differentiation conditions); type: cell-based; settings: Homo sapiens, CD4+ T, 72 h, IL-17 in supernatant after 3 days
Outline: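 Primary CD4+ T cells from healthy-donor PBMC, preincubated 1 h with titrated compound (0.2% DMSO), then activated with anti-CD3/CD28 beads plus anti-IL4, anti-IFNγ, IL1β, IL23, IL6, TGFβ and IL2.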

Compound | Kd [1] | IC50 (human RORγt LBD) | inhibition at 6 µM (human RORγt LBD) | IC50 [2]
OC(c1cccnc1)(c1ccc2nc(Cl)c(-c3ccccc3)c(Cl)c2c1)c1ccccn1 (stereo not drawn) [Example 26, (2,4-Dichloro-3-phenylquinolin-6-yl)(pyridin-2-yl)pyridin-3-ylmethanol•TFA] | 1300 nM | 700 nM | 100% | 2800 nM
Oc1ccc(C(O)(c2cccnc2)c2ccc3nc(Cl)c(-c4ccccc4)c(Cl)c3c2)cc1 (stereo not drawn) [Example 29, 4-[(2,4-Dichloro-3-phenylquinolin-6-yl)(hydroxy)pyridin-3-ylmethyl]phenol•HCl] | 180 nM | 260 nM | 95% | 2800 nM
CCc1nc2ccc(C(O)(c3ccc(F)cc3)c3cccnc3)cc2c(Cl)c1-c1ccccc1 (stereo not drawn) [Example 30, (4-Chloro-2-ethyl-3-phenylquinolin-6-yl)(4-fluorophenyl)pyridin-3-ylmethanol•TFA] | 33 nM | ~300 nM | 93% | ~1000 nM
CN(C)c1nc2ccc(C(O)(c3ccc(Cl)cc3)c3cccnc3)cc2c(Cl)c1-c1ccccc1 (stereo not drawn) [Example 32, [4-Chloro-2-(dimethylamino)-3-phenylquinolin-6-yl](4-chlorophenyl)pyridin-3-ylmethanol•TFA] | 330 nM | 94 nM | 97% | 860 nM
CN(C)c1nc2ccc(C(O)(c3cccnc3)c3cncn3C)cc2c(Cl)c1-c1ccccc1 (stereo not drawn) [Example 34, [4-Chloro-2-(dimethylamino)-3-phenylquinolin-6-yl](1-methyl-1H-imidazol-5-yl)pyridin-3-ylmethanol•TFA] | 33 nM | 47 nM and < 50 nM | 100% | 140 nM
CN(C)c1c(-c2ccccc2)c(Cl)nc2ccc(C(O)(c3cccnc3)c3cncn3C)cc12 (stereo not drawn) [Example 35, [2-Chloro-4-(dimethylamino)-3-phenylquinolin-6-yl](1-methyl-1H-imidazol-5-yl)pyridin-3-ylmethanol•TFA] | 330 nM | 340 nM | 97% | 770 nM
CN(C)c1nc2ccc(C(O)(c3ccccn3)c3cncn3C)cc2c(Cl)c1-c1ccccc1 (stereo not drawn) [Example 36, [4-Chloro-2-(dimethylamino)-3-phenylquinolin-6-yl](1-methyl-1H-imidazol-5-yl)pyridin-2-ylmethanol•TFA] | 2000 nM | 290 nM | 98% | 1600 nM
CN(C)c1nc2ccc(C(O)(c3ccncc3)c3ccncc3)cc2c(Cl)c1-c1ccccc1 [Example 37, [4-Chloro-2-(dimethylamino)-3-phenylquinolin-6-yl](dipyridin-4-yl)methanol•TFA] | 200 nM | 190 nM | 91% | ~1000 nM
CN(C)c1nc2ccc(C(O)(c3ccc(F)cc3)c3cccnc3)cc2c(Cl)c1-c1ccccc1 (stereo not drawn) [Example 38, [4-Chloro-2-(dimethylamino)-3-phenylquinolin-6-yl](4-fluorophenyl)pyridin-3-ylmethanol•TFA] | 37 nM | 110 nM and < 50 nM | 98% | 270 nM
CN(C)c1nc2ccc(C(O)(c3cccnc3)c3cccnc3)cc2c(Cl)c1-c1ccccc1 [Example 40, [4-Chloro-2-(dimethylamino)-3-phenylquinolin-6-yl](dipyridin-3-yl)methanol•TFA] | 18 nM | 47 nM and < 50 nM | 100% | 56 nM
CN(C)c1nc2ccc(C(O)(c3cccnc3)c3cccc(Cl)c3)cc2c(Cl)c1-c1ccccc1 (stereo not drawn) [Example 41, [4-Chloro-2-(dimethylamino)-3-phenylquinolin-6-yl](3-chlorophenyl)pyridin-3-ylmethanol•TFA] | 23 nM | 110 nM and ~100 nM | 98% | 200 nM
CN(C)c1nc2ccc(C(O)(c3cccnc3)c3ccccc3Cl)cc2c(Cl)c1-c1ccccc1 (stereo not drawn) [Example 44, [4-Chloro-2-(dimethylamino)-3-phenylquinolin-6-yl](2-chlorophenyl)pyridin-3-ylmethanol•TFA] | 330 nM | 170 nM | 97% | 550 nM
CCN(C)c1nc2ccc(C(O)(c3ccncc3)c3cncn3C)cc2c(Cl)c1-c1ccccc1 (stereo not drawn) [Example 50, {4-Chloro-2-[ethyl(methyl)amino]-3-phenylquinolin-6-yl}(1-methyl-1H-imidazol-5-yl)pyridin-4-ylmethanol•TFA] | 5 nM | 7 nM and ~9 nM and < 50 nM | 105% | 36 nM
COc1cccc(C(O)(c2cccnc2)c2ccc3nc(Cl)c(-c4ccccc4)c(Cl)c3c2)c1 (stereo not drawn) [Example 54, (2,4-Dichloro-3-phenylquinolin-6-yl)(3-methoxyphenyl)pyridin-3-ylmethanol] | 39 nM | 150 nM | 97% | 360 nM
OC(c1ccc(Cl)nc1)(c1cccc(Cl)c1)c1ccc2nc(Cl)c(-c3ccccc3)c(Cl)c2c1 (stereo not drawn) [Example 56, (3-Chlorophenyl)(6-chloropyridin-3-yl)(2,4-dichloro-3-phenylquinolin-6-yl)methanol] | 40 nM | 170 nM | 91% | 240 nM
OC(c1ccc(Cl)nc1)(c1cccc(F)c1)c1ccc2nc(Cl)c(-c3ccccc3)c(Cl)c2c1 (stereo not drawn) [Example 57, (6-Chloropyridin-3-yl)(2,4-dichloro-3-phenylquinolin-6-yl)(3-fluorophenyl)methanol] | 55 nM | 160 nM | 90% | 280 nM
COc1ccc(C(O)(c2cccnc2)c2ccc3nc(N(C)C)c(-c4ccccc4)c(Cl)c3c2)cc1 (stereo not drawn) [Example 62, [4-Chloro-2-(dimethylamino)-3-phenylquinolin-6-yl](4-methoxyphenyl)pyridin-3-ylmethanol•TFA] | 420 nM | 250 nM | 98% | 700 nM
COCCN(C)c1nc2ccc(C(O)(c3ccncc3)c3cncn3C)cc2c(Cl)c1-c1ccccc1 (stereo not drawn) [Example 63, {4-Chloro-2-[(2-methoxyethyl)(methyl)amino]-3-phenylquinolin-6-yl}(1-methyl-1H-imidazol-5-yl)pyridin-4-ylmethanol•TFA] | 15 nM | 8.6 nM | 106% | 63 nM
COc1cccc(C(O)(c2ccc(Cl)nc2)c2ccc3nc(Cl)c(-c4ccccc4)c(Cl)c3c2)c1 (stereo not drawn) [Example 65, (6-Chloropyridin-3-yl)(2,4-dichloro-3-phenylquinolin-6-yl)(3-methoxyphenyl)methanol] | 200 nM | 160 nM | 103% | 190 nM
Cn1cncc1C(O)(c1ccnc(Cl)c1)c1ccc2nc(Cl)c(-c3ccccc3)c(Cl)c2c1 (stereo not drawn) [Example 66, (2-Chloropyridin-4-yl)(2,4-dichloro-3-phenylquinolin-6-yl)(1-methyl-1H-imidazol-5-yl)methanol•TFA] | 1.7 nM | 10 nM | 105% | 59 nM
COc1cc(C(O)(c2ccc3nc(Cl)c(-c4ccccc4)c(Cl)c3c2)c2cncn2C)ccn1 (stereo not drawn) [Example 68, (2,4-Dichloro-3-phenylquinolin-6-yl)(2-methoxypyridin-4-yl)(1-methyl-1H-imidazol-5-yl)methanol•TFA] | 3.9 nM | 5.8 nM | 103% | 48 nM
